# Laboratory results taken from publication PMC4359187 (Drugs in R&D, 2015).
# Tests used:
# [1] = tested on: HIV-positive patients; conditions: saquinavir monotherapy, 84 patients; cited from earlier work
# [2] = tested on: hERG channels heterologously expressed in HEK293 cells; conditions: cited from earlier work
# [3] = tested on: treatment-naïve HIV-1-infected patients; assay: Continuous Holter 12-lead ECG; type: in vivo, human; conditions: modified saquinavir/ritonavir regimen
structure (smiles),measurement,setting,value
"CC(C)(C)NC(=O)[C@@H]1C[C@@H]2CCCC[C@@H]2CN1C[C@@H](O)[C@H](Cc1ccccc1)NC(=O)[C@H](CC(N)=O)NC(=O)c1ccc2ccccc2n1 [Saquinavir, saquinavir]","Clinical EC50 value, C min",[1],0.05 µg/mL
same,Blockage of hERG channels,[2]; hERG heterologously expressed in HEK293 cells,dose-dependent blockage
same,Effect on hERG trafficking,[2]; in vitro,inhibitory effects
same,Correlation between maximum ∆QTcFdense and C max of saquinavir,[3],No strong correlation
